Results on four compounds are retold here after ChEMBL document CHEMBL3124747, “Formosusin A, a novel specific inhibitor of mammalian DNA polymerase β from the fungus Paecilomyces formosus” (Bioorg Med Chem, 2014).

Experiment [1] can be described thus: Inhibition of human His-tagged DNA polymerase gamma expressed in baculovirus assessed as inhibition of incorporation of dTTP into poly(dA)/oligo(dT)18 after 60 mins.
Experiment [2] has as its target T1, DNA polymerase beta (Rattus norvegicus, UniProt P06766). Briefly: Competitive inhibition of recombinant rat DNA polymerase beta using poly(dA)/oligo(dT)18 as substrate by Lineweaver-Burk plot analysis.
In experiment [3] the target is DNA polymerase beta (Rattus norvegicus) (UniProt P06766). Description: Inhibition of recombinant rat DNA polymerase beta expressed in Escherichia coli JMpbeta5 assessed as inhibition of incorporation of dTTP into poly(dA)/oligo(dT)18 after 60 mins.
Experiment [4] is described as follows: Inhibition of fruit fly DNA polymerase epsilon assessed as inhibition of incorporation of dTTP into poly(dA)/oligo(dT)18 after 60 mins. Also noted: species or system Drosophila melanogaster.
Experiment [5] deals with T1, DNA polymerase beta. Briefly: Noncompetitive inhibition of recombinant rat DNA polymerase beta using dTTP as substrate by Lineweaver-Burk plot analysis.
Experiment [6] deals with T2, DNA polymerase alpha catalytic subunit (Drosophila melanogaster, UniProt P26019).
T2 sequence (P26019 whole entry): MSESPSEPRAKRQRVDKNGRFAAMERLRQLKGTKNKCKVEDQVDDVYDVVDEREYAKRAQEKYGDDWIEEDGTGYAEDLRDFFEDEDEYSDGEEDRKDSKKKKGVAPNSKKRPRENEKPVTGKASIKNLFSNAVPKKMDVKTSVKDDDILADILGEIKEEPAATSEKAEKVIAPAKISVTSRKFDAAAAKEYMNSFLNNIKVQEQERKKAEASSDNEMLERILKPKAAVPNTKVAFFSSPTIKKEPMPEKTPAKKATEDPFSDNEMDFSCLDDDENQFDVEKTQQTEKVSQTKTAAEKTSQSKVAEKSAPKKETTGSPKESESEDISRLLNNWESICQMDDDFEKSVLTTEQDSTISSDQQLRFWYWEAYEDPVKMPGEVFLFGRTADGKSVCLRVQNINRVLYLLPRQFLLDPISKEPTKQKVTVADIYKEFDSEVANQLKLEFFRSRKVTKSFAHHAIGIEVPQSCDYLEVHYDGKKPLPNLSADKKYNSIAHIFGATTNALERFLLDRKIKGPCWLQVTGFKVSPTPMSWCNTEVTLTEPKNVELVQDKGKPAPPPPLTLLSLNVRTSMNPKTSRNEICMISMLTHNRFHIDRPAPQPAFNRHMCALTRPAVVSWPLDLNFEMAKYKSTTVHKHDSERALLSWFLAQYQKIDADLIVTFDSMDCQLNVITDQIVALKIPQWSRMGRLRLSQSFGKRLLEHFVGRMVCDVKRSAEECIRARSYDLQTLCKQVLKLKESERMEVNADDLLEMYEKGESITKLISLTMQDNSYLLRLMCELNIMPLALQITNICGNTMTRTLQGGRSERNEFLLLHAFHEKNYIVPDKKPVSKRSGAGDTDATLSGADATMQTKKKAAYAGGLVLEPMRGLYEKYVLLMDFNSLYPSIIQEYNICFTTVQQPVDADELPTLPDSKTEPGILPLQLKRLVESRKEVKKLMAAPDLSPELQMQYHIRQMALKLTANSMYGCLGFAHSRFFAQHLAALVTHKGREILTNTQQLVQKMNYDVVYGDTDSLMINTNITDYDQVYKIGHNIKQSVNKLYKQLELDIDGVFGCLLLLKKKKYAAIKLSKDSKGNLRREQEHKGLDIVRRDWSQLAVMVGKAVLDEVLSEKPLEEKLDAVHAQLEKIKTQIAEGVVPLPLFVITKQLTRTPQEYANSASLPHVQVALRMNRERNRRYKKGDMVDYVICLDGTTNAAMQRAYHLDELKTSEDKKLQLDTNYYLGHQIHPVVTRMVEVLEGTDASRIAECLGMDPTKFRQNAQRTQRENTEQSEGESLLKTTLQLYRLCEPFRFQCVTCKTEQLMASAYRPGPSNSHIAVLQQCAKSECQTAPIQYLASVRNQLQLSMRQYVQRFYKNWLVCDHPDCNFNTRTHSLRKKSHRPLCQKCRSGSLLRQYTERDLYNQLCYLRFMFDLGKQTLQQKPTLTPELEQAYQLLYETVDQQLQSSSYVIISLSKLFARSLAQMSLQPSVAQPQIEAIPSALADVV
Briefly: Inhibition of fruit fly DNA polymerase alpha assessed as inhibition of incorporation of dTTP into poly(dA)/oligo(dT)18 after 60 mins.

As for `CCCC[C@@H](O)/C=C(C)/C=C/C=C\C(=O)N1CCCC1=O`, the IC50 in experiment [1], in experiment [4] and in experiment [6] was > 200 µM throughout. Moreover, the Ki amounted to 5.5 µM at DNA polymerase beta [2] and 11.6 µM on DNA polymerase beta [5]. Further, the inhibition entry in experiment [3] is “Dose-dependent effect”.
For `CC(/C=C/CCC(=O)N1CCCC1=O)=C\C1CCCCO1` (stereo not given), the 50% inhibitory concentration (IC50) in experiment [1], in experiment [4] and in experiment [6] was > 200 µM each time.
Regarding `CCCC[C@@H](O)/C=C(C)/C=C/C=C/C(=O)N1CCCC1=O` [PECILOCIN], the IC50 in experiment [1], in experiment [4] and in experiment [6] was > 200 µM in each case.
Consider `CCCCC(=O)/C=C(C)/C=C/CCC(=O)N1CCCC1=O`, for which the concentration for half-maximal inhibition (IC50) in experiment [1], in experiment [4] and in experiment [6] was > 200 µM throughout.

By IC50 is commonly meant the concentration that inhibits the measured activity by half. Broadly, the Ki is a measure of affinity in units of concentration, obtained from inhibition or displacement.
